The test system of this experiment is Mice that over-expressed human Cu,Zn superoxide dismutase-1 mutant G93A. The experiment can be described thus: Survival of ALS model mice treated by oral gavage. Particulars: G93A SOD1 mice; single-agent control treatment; untreated mice 125 days. The experiment is classed as in vivo. The procedure: Compound 1 was dissolved in a PEG solvent (30% PEG 400, 5% EtOH, 5% DMSO, 1 mg/ml). The solution was mixed with Coenzyme Q10 in liposome (5 mg/ml, NuNaturals).
Mice that over-expressed human Cu,Zn superoxide dismutase-1 mutant G93A to develop a delayed and progressive motor neuron disease similar to human amyotrophic lateral sclerosis (ALS) were used in this assay.
The mixture of Compound 1 and Coenzyme Q10 were administered by gavage (oral) once a day (final dosage: 10 mg/kg of Compound 1 and 50 mg/kg of Coenzyme Q10) to 5 mice. The average survival time for the mice was 156 days.
As control, mice were subject to Compound 1 treatment, Coenzyme Q10 treatment, or no Compound 1 or Coenzyme Q10 treatment. The average survival time was 138 days for Compound 1-treated mice, 129 days for Coenzyme Q10 treatment mice, and 125 days for no Compound 1 or Coenzyme Q10-treated mice.

With `COC1=C(OC)C(=O)C(C/C=C(\C)CC/C=C(\C)CC/C=C(\C)CC/C=C(\C)CC/C=C(\C)CC/C=C(\C)CC/C=C(\C)CC/C=C(\C)CC/C=C(\C)CCC=C(C)C)=C(C)C1=O` [Coenzyme Q10], the average survival time is given as 129 days.
The compound `O=C(/C=C/c1ccc(O)c(O)c1)OCCc1ccccc1` [Compound 1, caffeic acid phenethyl ester] gave an average survival time of 138 days.

(Values after patent publication US9040579B2, “Combination therapy using coenzyme Q10 and a caffeic acid-derived ester” (priority 2010, dated 2015).)
